For 22 compounds, Kb and Ki results are on record in patent US8507533B2, “Glucagon receptor modulators” (Pfizer Inc., priority 2011, dated 2013).

The target of test [1] is T1, human glucagon receptor (Homo sapiens (Human), UniProt P47871). The experiment in a line: Glucagon cAMP Assay (Cisbio cAMP detection). The format is cell-based. Conditions: CHOK1 cells stably transfected with the human glucagon receptor; block of glucagon induced cAMP production; Kb by modified Cheng-Prusoff equation. On the technique in general: cAMP levels reflect the balance of adenylyl cyclase and phosphodiesterase activity.

In test [2] the target is T1, human glucagon receptor. The experiment in a line: Human Glucagon SPA Assay (binding of [125I]Glucagon-Cex). Conditions: membrane from chem-1 cells stably transfected with the human glucagon receptor, Ki by Cheng-Prusoff equation. On the procedure:
The Glucagon SPA assay is used to determine the ability of test compounds to block the binding of glucagon-cex to the glucagon receptor. Test compounds are re-suspended and serially diluted in 100% DMSO. 1 μl of test compound at the desired concentrations is spotted into the appropriate wells of 96 well low binding white clear bottom plate (Corning). 1 μl of DMSO is spotted into total binding wells. 1 μl of a known glucagon antagonist at a concentration of 20 μM is added to non specific binding wells. […] All assay ingredients with the exception of test compounds are re-suspended in the following buffer; 50 mM Hepes pH 7.4; 5 mM MgCl2; 1 mM CaCl; 5% glycerol and 0.2% BSA. Following a 6-10 hr incubation at room temperature the amount of hot ligand bound to the cell membranes is determined by reading the plates on a Wallac Trilux radioactive emission detector. Data is analyzed using Pfizer's Data analysis program. IC50 values are then determined from the generated sigmoidal dose response curves. Ki values are calculated using Cheng-Prusoff equation. N is the number of times the compound was assayed.

T1 sequence (P47871 26-477): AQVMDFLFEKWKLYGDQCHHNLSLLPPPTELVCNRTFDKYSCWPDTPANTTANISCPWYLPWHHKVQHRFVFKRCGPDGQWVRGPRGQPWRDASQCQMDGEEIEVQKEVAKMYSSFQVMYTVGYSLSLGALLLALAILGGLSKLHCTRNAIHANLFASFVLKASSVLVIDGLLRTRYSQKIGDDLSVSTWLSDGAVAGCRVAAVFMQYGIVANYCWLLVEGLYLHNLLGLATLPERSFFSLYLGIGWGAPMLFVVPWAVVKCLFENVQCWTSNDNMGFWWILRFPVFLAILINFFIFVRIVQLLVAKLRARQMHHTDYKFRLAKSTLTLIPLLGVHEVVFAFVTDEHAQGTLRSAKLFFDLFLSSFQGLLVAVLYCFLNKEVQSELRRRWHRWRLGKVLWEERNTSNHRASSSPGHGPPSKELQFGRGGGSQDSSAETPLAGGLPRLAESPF

`CCC[C@@H](Nc1ccc(-n2cc(C(C)(C)C)cn2)nc1)c1ccc(C(=O)NCCC(=O)O)cc1` (single isomer, unassigned) [Example 137, 3-(4-(1-(6-(4-tert-butyl-1H-pyrazol-1-yl)pyridin-3-ylamino)butyl)benzamido)propanoic acid] had a Kb at human glucagon receptor [1] of 27 nM. This compound also had a Ki at human glucagon receptor [2] of 20.2 nM.

In turn, `Cc1cc(OC(c2ccc(C(=O)NCCC(=O)O)cc2)C2CCC2)cc(C)c1-n1cc(C(F)(F)F)cn1` (single isomer, unassigned) [Example 138, 3-(4-(cyclobutyl(3,5-dimethyl-4-(4-(trifluoromethyl)-1H-pyrazol-1-yl)phenoxy)methyl)benzamido)propanoic acid] showed a Kb at human glucagon receptor [1] of 40 nM. The Ki on human glucagon receptor [2] was 5.75 nM.

`CC(C)C[C@H](Nc1ccc(C(=O)NCCC(=O)O)cn1)c1ccc(-n2cc(C(F)(F)F)cn2)nc1` (single isomer, unassigned) [Example 142, 3-(6-(3-methyl-1-(6-(4-(trifluoromethyl)-1H-pyrazol-1-yl)pyridin-3-yl)butylamino)nicotinamido)propanoic acid] yielded a Kb at human glucagon receptor [1] of 883 nM. On human glucagon receptor [2], this compound came in with a Ki of 636 nM.

Regarding `CC(C)C[C@H](Nc1ccc(C(=O)NCCC(=O)O)cn1)c1ccc(-n2cc(C(F)(F)F)cn2)nc1` (single isomer, unassigned) [Example 143, 3-(6-(3-methyl-1-(6-(4-(trifluoromethyl)-1H-pyrazol-1-yl)pyridin-3-yl)butylamino)nicotinamido)propanoic acid], the Kb at human glucagon receptor [1] came to 179 nM. For the same compound, at human glucagon receptor [2], the Ki was found to be 57.4 nM.

Compound `CCCC(Oc1cc(C)c(-n2cc(Cl)cn2)c(C)c1)c1ccc(C(=O)NCCC(=O)O)cc1` (single isomer, unassigned) [Example 145, 3-(4-(1-(4-(4-chloro-1H-pyrazol-1-yl)-3,5-dimethylphenoxy)butyl)benzamido)propanoic acid] had a Kb at human glucagon receptor [1] of 156 nM. Further, the Ki at human glucagon receptor [2] was determined as 93.2 nM.

In turn, `O=C(O)CCNC(=O)c1ccc([C@@H](Nc2ccc(-n3cc(C(F)(F)F)cn3)nc2)C2CCCCC2)cc1` (single isomer, unassigned) [Example 146, 3-(4-(cyclohexyl(6-(4-(trifluoromethyl)-1H-pyrazol-1-yl)pyridine-3-ylamino)methyl)benzamido)propanoic acid] came in with a Kb on human glucagon receptor [1] of 21 nM. Besides, the Ki at human glucagon receptor [2] was 9.05 nM.

The compound `O=C(O)CCNC(=O)c1ccc([C@@H](Nc2ccc(-n3cc(C(F)(F)F)cn3)nc2)C2CCCCC2)cc1` (single isomer, unassigned) [Example 147, 3-(4-(cyclohexyl(6-(4-(trifluoromethyl)-1H-pyrazol-1-yl)pyridine-3-ylamino)methyl)benzamido)propanoic acid] had a Kb on human glucagon receptor [1] of 343 nM. Moreover, the affinity on human glucagon receptor [2], expressed as Ki, was 26.7 nM.

Consider `CC1(C)CC(C(Oc2cnc(-n3cc(C(F)(F)F)cn3)nc2)c2ccc(C(=O)NCCC(=O)O)cc2)C1` (single isomer, unassigned; isomer 1) [Example 155, 3-(4-((3,3-dimethylcyclobutyl)(2-(4-(trifluoromethyl)-1H-pyrazol-1-yl)pyrimidin-5-yloxy)methyl)benzamido)propanoic acid, Isomer 1], for which the Kb on human glucagon receptor [1] is 313 nM. Affinity on human glucagon receptor [2] was put at a Ki of 94.9 nM.

`CC1(C)CC(C(Oc2cnc(-n3cc(C(F)(F)F)cn3)nc2)c2ccc(C(=O)NCCC(=O)O)cc2)C1` (single isomer, unassigned; isomer 1) [Example 156, 3-(4-((3,3-dimethylcyclobutyl)(2-(4-(trifluoromethyl)-1H-pyrazol-1-yl)pyrimidin-5-yloxy)methyl)benzamido)propanoic acid, Isomer 1] displayed a Kb at human glucagon receptor [1] of 246 nM. On human glucagon receptor [2], this compound came in with a Ki of 251 nM.

As to `CC1(C)CC(C(Nc2cnc(-n3cc(C(F)(F)F)cn3)nc2)c2ccc(C(=O)NCCC(=O)O)cc2)C1` (single isomer, unassigned; isomer 1) [Example 157, 3-(4-((3,3-dimethylcyclobutyl)(2-(4-(trifluoromethyl)-1H-pyrazol-1-yl)pyrimidin-5-ylamino)methyl)benzamido)propanoic acid, Isomer 1], the Kb on human glucagon receptor [1] worked out at 18.6 nM. The same compound yielded a Ki at human glucagon receptor [2] of 5.55 nM.

At human glucagon receptor [1], `CCCC(Nc1ccc(-n2cc(-c3ccccc3)cn2)nc1)c1ccc(C(=O)NCCC(=O)O)cc1` (single isomer, unassigned; isomer 1) [Example 160, 3-(4-(1-(6-(4-phenyl-1H-pyrazol-1-yl)pyridine-3-ylamino)butyl)benzamido)propanoic acid, Isomer 1] yielded a Kb of 111 nM. The affinity on human glucagon receptor [2], expressed as Ki, was 29 nM.

Consider `CCCC(Nc1ccc(-n2cc(CC)c(C)n2)nc1)c1ccc(C(=O)NCCC(=O)O)cc1` (single isomer, unassigned; isomer 1) [Example 166, 3-(4-(1-(6-(4-ethyl-3-methyl-1H-pyrazol-1-yl)pyridin-3-ylamino)butyl)benzamido)propanoic acid, Isomer 1], for which the Kb at human glucagon receptor [1] came out at 94.8 nM. Also, the Ki on human glucagon receptor [2] amounted to 91.5 nM.

On human glucagon receptor [1], `Cc1cc(C(Nc2ccc(C(=O)NCCC(=O)O)cn2)C2CCCC2)cc(C)c1-n1cc(C(F)(F)F)cn1` (single isomer, unassigned; isomer 1) [Example 170, (3-(6-((cyclopentyl(3,5-dimethyl-4-(4-(trifluoromethyl)-1H-pyrazol-1-yl)phenyl)methyl)amino)nicotinamido)propanoic acid, Isomer 1] came in with a Kb of 1300 nM. Also, the Ki on human glucagon receptor [2] was 224 nM.

As for `O=C(O)CCNC(=O)c1ccc([C@H](CCC(F)(F)F)Nc2ccc(-n3cc(C(F)(F)F)cn3)nc2)cc1` (single isomer, unassigned; isomer 1) [Example 172, N-{4-[4,4,4-trifluoro-1-({6-[4-(trifluoromethyl)-1H-pyrazol-1-yl]pyridin-3-yl}amino)butyl]benzoyl}-beta-alanine, Isomer 1], the Kb at human glucagon receptor [1] was found to be 59.9 nM. Besides, at human glucagon receptor [2], the Ki is 8.18 nM.

On to `CC1(C)CC([C@H](Nc2ccc(-n3cc(C4CC4)cn3)nc2)c2ccc(C(=O)NCCC(=O)O)cc2)C1` (single isomer, unassigned; isomer 1) [Example 174, N-{-4-[{[6-(4-cyclopropyl-1H-pyrazol-1-yl)pyridin-3-yl]amino}(3,3-dimethylcyclobutyl)methyl]benzoyl}-beta-alanine, Isomer 1], for which, on human glucagon receptor [1], the Kb stood at 252 nM. The compound further registered a Ki on human glucagon receptor [2] of 57 nM.

Regarding `CC(C)(C)[C@H](Nc1ccc(-n2cc(C(F)(F)F)cn2)nc1)c1ccc(C(=O)NCCC(=O)O)cc1` (single isomer, unassigned; isomer 1) [Example 179, 3-(4-(2,2-dimethyl-1-((6-(4-(trifluoromethyl)-1H-pyrazol-1-yl)pyridin-3-yl)amino)propyl)benzamido)propanoic acid, Isomer 1], the Kb at human glucagon receptor [1] is 134 nM. This compound came in with a Ki on human glucagon receptor [2] of 22.1 nM.

Take `CC(C)(C)[C@H](Nc1ccc(-n2cnc(C(F)(F)F)c2)nc1)c1ccc(C(=O)NCCC(=O)O)cc1` (single isomer, unassigned; isomer 1) [Example 182, 3-(4-(2,2-dimethyl-1-((6-(4-(trifluoromethyl)-1H-imidazol-1-yl)pyridin-3-yl)amino)propyl)benzamido)propanoic acid, Isomer 1]: the Kb on human glucagon receptor [1] was found to be 424 nM. At human glucagon receptor [2], this compound displayed a Ki of 156 nM.

In turn, `Cc1nn(-c2ccc(N[C@H](c3ccc(C(=O)NCCC(=O)O)cc3)C3CCCC3)cn2)cc1Cl` (single isomer, unassigned; isomer 1) [Example 191, 3-(4-((6-(4-chloro-3-methyl-1H-pyrazol-1-yl)pyridin-3-ylamino)(cyclopentyl)methyl)benzamido)propanoic acid, Isomer 1] had a Kb at human glucagon receptor [1] of 11.7 nM. In addition, on human glucagon receptor [2], affinity was put at a Ki of 29.3 nM.

For `CC1(C)CC(C(Nc2cnc(-n3cc(C(F)(F)F)cn3)nc2)c2ccc(C(=O)NCCC(=O)O)cc2)C1` (single isomer, unassigned; isomer 2) [Example 158, 3-(4-((3,3-dimethylcyclobutyl)(2-(4-(trifluoromethyl)-1H-pyrazol-1-yl)pyrimidin-5-ylamino)methyl)benzamido)propanoic acid, Isomer 2], the Kb at human glucagon receptor [1] stood at 155 nM. The compound further displayed a Ki on human glucagon receptor [2] of 41 nM.

Consider `CCCC(Nc1ccc(-n2cc(-c3ccccc3)cn2)nc1)c1ccc(C(=O)NCCC(=O)O)cc1` (single isomer, unassigned; isomer 2) [Example 161, 3-(4-(1-(6-(4-phenyl-1H-pyrazol-1-yl)pyridine-3-ylamino)butyl)benzamido)propanoic acid, Isomer 2], for which, on human glucagon receptor [1], the Kb came out at 9.49 nM. In addition, the Ki on human glucagon receptor [2] is 25.7 nM.

Regarding `CCCC(Nc1ccc(-n2cc(CC)c(C)n2)nc1)c1ccc(C(=O)NCCC(=O)O)cc1` (single isomer, unassigned; isomer 2) [Example 167, 3-(4-(1-(6-(4-ethyl-3-methyl-1H-pyrazol-1-yl)pyridin-3-ylamino)butyl)benzamido)propanoic acid, Isomer 2], the Kb on human glucagon receptor [1] turned out to be 1140 nM. Besides, affinity at human glucagon receptor [2] was put at a Ki of 414 nM.

For the compound `Cc1cc(C(Nc2ccc(C(=O)NCCC(=O)O)cn2)C2CCCC2)cc(C)c1-n1cc(C(F)(F)F)cn1` (single isomer, unassigned; isomer 2) [Example 171, 3-(6-((cyclooentyl(3,5-dimethyl-4-(4-(trifluoromethyl)-1H-pyrazol-1-yl)phenyl)methyl)amino)nicotinamido)propanoic acid, Isomer 2], on human glucagon receptor [1], the Kb stood at 150 nM. Besides, affinity on human glucagon receptor [2] was put at a Ki of 28 nM.

A word on the Ki: it is the equilibrium dissociation constant of an inhibitor or competing ligand from its target. Read a low Ki as tighter binding.
